According to ChEMBL document CHEMBL4431378, “Small Molecule Antagonists of the Nuclear Androgen Receptor for the Treatment of Castration-Resistant Prostate Cancer” (ACS Med Chem Lett, 2016):

Biological target: T1, Androgen receptor (Homo sapiens, UniProt P10275)
T1 sequence (P10275 whole entry): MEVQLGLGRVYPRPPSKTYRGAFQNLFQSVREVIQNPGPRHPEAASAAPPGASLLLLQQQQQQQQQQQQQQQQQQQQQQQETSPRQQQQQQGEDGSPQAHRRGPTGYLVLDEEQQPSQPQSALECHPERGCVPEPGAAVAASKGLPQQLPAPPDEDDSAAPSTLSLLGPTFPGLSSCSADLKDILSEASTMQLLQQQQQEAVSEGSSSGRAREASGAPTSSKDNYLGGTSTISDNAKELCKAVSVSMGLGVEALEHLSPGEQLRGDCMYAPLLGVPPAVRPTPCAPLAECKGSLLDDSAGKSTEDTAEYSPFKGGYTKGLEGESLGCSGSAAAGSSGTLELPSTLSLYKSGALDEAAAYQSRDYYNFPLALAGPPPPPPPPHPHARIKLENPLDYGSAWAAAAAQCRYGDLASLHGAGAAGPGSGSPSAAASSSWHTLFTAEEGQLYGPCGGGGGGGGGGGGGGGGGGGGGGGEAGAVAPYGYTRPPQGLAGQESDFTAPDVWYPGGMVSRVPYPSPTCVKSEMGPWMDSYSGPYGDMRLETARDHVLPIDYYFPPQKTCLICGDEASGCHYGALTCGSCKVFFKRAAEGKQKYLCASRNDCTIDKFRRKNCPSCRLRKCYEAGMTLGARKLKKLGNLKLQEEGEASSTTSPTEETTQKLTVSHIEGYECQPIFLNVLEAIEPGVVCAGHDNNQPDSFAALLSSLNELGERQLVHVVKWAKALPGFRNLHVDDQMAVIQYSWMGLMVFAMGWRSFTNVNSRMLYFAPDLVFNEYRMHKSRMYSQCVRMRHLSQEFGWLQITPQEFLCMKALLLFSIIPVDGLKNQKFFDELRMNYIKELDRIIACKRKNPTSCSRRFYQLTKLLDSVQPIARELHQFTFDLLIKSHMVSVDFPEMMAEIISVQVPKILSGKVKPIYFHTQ
Test: Antagonist activity at androgen receptor in human C4-2-PSA-rl cells incubated for 24 hrs in presence of androgen R1881 by dual-glo luciferase reporter gene assay
Format: cell-based

## Cc1noc(C)c1CSCC(=O)N1CCN(c2ccccc2)CC1
  EC50: > 25 µM

## Cc1ccccc1N1CCN(C(=O)CN(C)Cc2ccccc2)CC1
  EC50: > 25 µM

## Cc1ccccc1N1CCN(C(=O)C[S+]([O-])Cc2c(C)noc2C)CC1 (stereo not given)
  EC50: > 25 µM

## Cc1ccccc1N1CCN(C(=O)CSc2ccccc2)CC1
  EC50: > 25 µM

## Cc1ccc(N2CCN(C(=O)CSCc3c(C)noc3C)CC2)cc1
  EC50: > 25 µM

## Cc1ccccc1N1CCN(C(=O)COCc2c(C)noc2C)CC1
  EC50: > 25 µM

## Cc1cccc(N2CCN(C(=O)CSCc3c(C)noc3C)CC2)c1
  EC50: > 25 µM

## COc1ccccc1N1CCN(C(=O)CSCc2c(C)noc2C)CC1
  EC50: > 25 µM

## Cc1ccccc1N1CCN(C(=O)/C=C/c2ccccc2)CC1
  EC50: > 25 µM

## Cc1ccccc1N1CCN(C(=O)NCSCc2c(C)noc2C)CC1
  EC50: > 25 µM

## Cc1ccccc1N1CCC(OC(=O)NCSCc2c(C)noc2C)CC1
  EC50: > 25 µM

## Cc1ccc(Cl)cc1N1CCN(C(=O)[C@H]2C[C@H]2c2ccc(F)cc2)CC1
  EC50: 1.7 µM

## Cc1ccc(Cl)cc1N1CCN(C(=O)[C@@H]2C[C@@H]2c2ccc(F)cc2)CC1
  EC50: 15.2 µM

## Cc1ccc(Cl)cc1N1CCN(C(=O)C2CC2c2ccc(F)cc2)CC1 (racemic)
  EC50: 2.7 µM

## Cc1ccccc1N1CCN(C(=O)[C@H]2C[C@@H]2c2ccccc2)CC1 (relative stereo)
  EC50: > 25 µM
